Tests used:
MCF-7 = experiment: Inhibition of tumor cell growth method (a), sulforhodamine B assay; assay type: cell-based; settings: Homo sapiens, MCF7; MCF-7, 72 hours, SRB
Description: (§1) The plates were incubated at 37° C. in an atmosphere composed of 95% air and 5% CO2 for 72 hours. The culture medium was then removed and the cells were fixed by addition of 50 μL of a 10% solution of trichloroacetic acid in water at 4° C. in each well. The plates were incubated at 4° C. for at least one hour, after which the colorimetric assay of sulforhodamine B (SRB) was carried out to determine the amount of biomass remaining in each well as described in previously developed methodologies [Vichai, V.; Kirtikara, K. Nat. Protoc. […] Briefly, the plates were washed several times with water and dried prior to the addition of 50 μL of a solution of dye sulforhodamine B (composed by 0.057% weight/weight of sulforhodamine B in 1% acetic acid) to each well. After 30 minutes of incubation, the unbound dye was removed by washing six times with 1% acetic acid. […] After an incubation period of 30 minutes, the absorbance in each well was read at a wavelength of 510 nm in a microplate reader. The cells treated only with vehicle consisting of a 1% solution of DMSO (vehicle) were used as control of 100% of live cells in the biomass and the wells incubated with the vehicle alone (without cells) were used to determine the baseline (0%) of live biomass. The IC50 values were calculated using the software SoftMax Pro (Molecular Devices, Sunnyvale, Calif.).

HeLa = experiment: as above; assay type: cell-based; settings: Homo sapiens, 72 hours, SRB
Description: as §1

HeLa cells = experiment: Determination of cellular production of lactate (GC/MS); assay type: cell-based; settings: 8 hours, concentrations from 50 to 200 μM, comparable or superior to 2-DeoxGlu at 10 mM
hLDH5 (LDH-A) = molecular target: T1, hLDH5 (LDH-A) (Homo sapiens, UniProt P00338); experiment: Enzyme inhibition of human lactate dehydrogenase isoform 5; assay type: biochemical; settings: ranges of values, pH 7.4; for Ki: 37° C., read-out: inhibitory activity against hLDH5 (Ki)
T1 construct: purchased LEEBIO (USA)
Description: The compounds described in the examples were evaluated in enzymatic assays to assess its inhibitory properties against two human isoforms of lactate dehydrogenase, hLDH5 containing solely the subunit LDH-A (LEEBIO—USA), and the hLDH1 containing only the LDH subunits-B (Sigma Aldrich, USA), in order to verify the selectivity of these compounds.
(for Ki measurements). Such assays were conducted in cells containing 200 μL of a solution comprising the reagents dissolved in phosphate buffer (KH2PO4 and K2HPO4) at pH 7.4.
IC50 values were calculated as described below. […] Seven different concentrations (in duplicate for each concentration) of compound were used to generate a concentration-response curve. […] Compound solutions were dispensed in 96-well plates (8 μL), then substrate and cofactor dissolved in buffer (152 μl) and enzyme solution (40 μl) were finally added. Dilution of the enzyme stock solution was made to allow a 10% consumption of the cofactor after 15 min. The eventual background fluorescence of the tested compounds or quenching of the NADH fluorescence by the tested compounds was subtracted. In addition to the compound test wells, each plate contained maximum and minimum controls. Assay plates were incubated at room temperature for 15 min and the final measurements were performed using Victor X3 Microplates reader (PerkinElmer®) at a fluorescence emission wavelength of 460 nm (excitation at 340 nm). IC50 were generated using the curve-fitting tool of GraphPad Prism].
The resulting data of enzymatic kinetic (the constants of Michaelis-Menten) were determined by analysis of non-linear regression.

H1975 = experiment: Inhibition of tumor cell growth method (b), CellTiter-Glo; assay type: cell-based; settings: Homo sapiens, NCI-H1975, H1975, 72 h
Excerpt: (§2) CellTiter-Glo® Luminescent Cell Viability Assay (Promega) is a homogeneous method of determining the number of viable cells in culture based on quantitation of the present ATP, which indicates the presence of metabolically active cells. The homogeneous assay procedure involves addition of a single reagent (CellTiter-Glo® Reagent) directly to the cells, which leads to cell lysis and generation of a luminescent signal proportional to the amount of the ATP and the number of cells present in culture. The assay relies on the properties of a proprietary thermostable luciferase (Ultra-Glo® recombinant luciferase), which generates a luminescent signal.
(§3) After 72 h, a volume of CellTiter-Glo® Reagent equal to the volume of cell culture medium was added. The content was mixed for 2 min to induce cell lysis. The luminescence was recorded after further 10 min at RT in order to obtain a stable luminescent signal.
(§4) The IC50 was calculated using GraphPad Software.

A549 cells = experiment: as above; assay type: cell-based; settings: Homo sapiens, A549, 72 h
Excerpt: as §2, §3, §4

H226 = experiment: Inhibition of tumor cell growth method (a), sulforhodamine B assay; assay type: cell-based; settings: Homo sapiens, NCI-H226; H226, 72 hours, SRB
Description: as §1

IGROV-1 = experiment: as above; assay type: cell-based; settings: Homo sapiens; IGROV-1, 72 hours, SRB
Description: as §1

H1299 = experiment: as above; assay type: cell-based; settings: Homo sapiens, NCI-H1299; H1299, 72 hours, SRB
Description: as §1

SMILES | IC50 (MCF-7) [µM] | IC50 (HeLa) [µM] | reduction of cellular production of lactate (HeLa cells) | Ki (hLDH5 (LDH-A)) [µM] | IC50 (H1975) [µM] | IC50 (A549 cells) [µM] | IC50 (H226) [µM] | IC50 (IGROV-1) [µM] | IC50 (H1299) [µM] | IC50 (hLDH5 (LDH-A); room temperature, read-out: inhibitory activity against hLDH5 (IC50)) [µM]
COC(=O)c1cc2c(C(F)(F)F)cc(-c3ccc(Cl)cc3Cl)cc2n1O [Example 8, methyl 6-(2,4-dichlorophenyl)-1-hydroxy-4-(trifluoromethyl)-1H-indole-2-carboxylate] | < 17 | < 15 | reduce effectively cellular production of lactate | 1 to 10 | ≤ 31 | ≤ 31 |  |  |  | 
CCOC(=O)c1cc2c(C(F)(F)F)cc(-c3ccccc3)cc2n1O [Example 1, ethyl 1-hydroxy-6-phenyl-4-(trifluoromethyl)-1H-indole-2-carboxylate] | < 35 | < 17 | reduce effectively cellular production of lactate | 1 to 10 | ≤ 31 | ≤ 31 | < 26 | < 31 | < 40 | 
COC(=O)c1cc2c(C(F)(F)F)cc(-c3ccccc3)cc2n1O[C@@H]1O[C@H](CO)[C@@H](O)[C@H](O)[C@H]1O [Example 3, methyl 6-phenyl-1-(β-D-glucopyranosyl)oxy-4-(trifluoromethyl)-1H-indole-2-carboxylate] | < 35 | < 17 | reduce effectively cellular production of lactate |  | ≤ 31 | ≤ 31 | < 26 | < 31 | < 40 | 
COC(=O)c1cc2c(C(F)(F)F)cc(-c3ccc(Cl)cc3Cl)cc2n1O[C@@H]1O[C@H](CO)[C@@H](O)[C@H](O)[C@H]1O [Example 10, methyl 6-(2,4-dichlorophenyl)-1-(β-D-glucopyranosyl)oxy-4-(trifluoromethyl)-1H-indole-2-carboxylate] | < 17 | < 15 |  |  |  |  |  |  |  | 50 to 500
O=C(O)c1cc2c(C(F)(F)F)cc(-c3ccccc3)cc2n1O [1-hydroxy-6-phenyl-4-trifluoromethyl-1H-indol-2-carboxylic acid, reference compound] | 124 | 44 |  |  | 57 | 60 | 121 | 123 | 141 | 
